Experimental data published in ChEMBL document CHEMBL1127074, “Novel hypotensive agents from Verbesina caracasana. 2. Synthesis and pharmacology of caracasanamide” (1993).
Where “and” joins values, the source holds several entries; their conditions need not be identical. Equal entries are not always repeated.

Key:
Rattus norvegicus [1] = assay: Tested for the change in systolic blood pressure administered at 50 ug/kg intravenously in anesthetized rats; type: functional, Artery
Rattus norvegicus [2] = assay: Tested for the change in systolic blood pressure administered at 6400 ug/kg intravenously in anesthetized rats; type: functional, Artery
Rattus norvegicus [3] = assay: Tested for the change in systolic blood pressure administered at 6400 ug/kg intravenously in anesthetized rats in presence of propranolol (3 mg/kg); type: functional, Artery
Rattus norvegicus [4] = assay: Tested for the change in systolic blood pressure administered at 800 ug/kg intravenously in anesthetized rats in presence of hexamethonium (5 mg/kg) (p<0.05); type: functional, Artery
Rattus norvegicus [5] = assay: Tested for the change in systolic blood pressure administered at 800 ug/kg intravenously in anesthetized rats in presence of phentolamine (2 mg/kg); type: functional, Artery
Rattus norvegicus [6] = assay: Tested for the change in diastolic blood pressure administered at 800 ug/kg iv in anesthetized rats in presence of phentolamine (2 mg/kg); type: functional, Artery
Rattus norvegicus [7] = assay: Tested for change in diastolic blood pressure administered at 4.12 uM/kg iv in anesthetized rats; type: functional, Artery
Rattus norvegicus [8] = assay: Tested for change in systolic blood pressure administered at 4.12 uM/kg iv in anesthetized rats; type: functional, Artery
Rattus norvegicus [9] = assay: Tested for the change in diastolic blood pressure administered at 100 ug/kg intravenously in anesthetized rats; type: functional, Artery
Rattus norvegicus [10] = assay: Tested for the change in diastolic blood pressure administered at 1600 ug/kg iv in anesthetized rats in presence of propranolol (3 mg/kg); type: functional, Artery
Rattus norvegicus [11] = assay: Tested for the change in diastolic blood pressure administered at 800 ug/kg iv in anesthetized rats in presence of propranolol (3 mg/kg); type: functional, Artery
Rattus norvegicus [12] = assay: Tested for the change in systolic blood pressure administered at 1600 ug/kg intravenously in anesthetized rats in presence of hexamethonium (5 mg/kg) (p<0.05); type: functional, Artery
Rattus norvegicus [13] = assay: Tested for the change in systolic blood pressure administered at 200 ug/kg intravenously in anesthetized rats; type: functional, Artery
Rattus norvegicus [14] = assay: Tested for the change in systolic blood pressure administered at 200 ug/kg intravenously in anesthetized rats in presence of spinalization under vagotomy; type: functional, Artery
Rattus norvegicus [15] = assay: Tested for the change in systolic blood pressure administered at 3200 ug/kg intravenously in anesthetized rats in presence of propranolol (3 mg/kg); type: functional, Artery
Rattus norvegicus [16] = assay: Tested for the change in systolic blood pressure administered at 400 ug/kg intravenously in anesthetized rats; type: functional, Artery
Rattus norvegicus [17] = assay: Tested for the change in diastolic blood pressure administered at 3200 ug/kg intravenously in anesthetized rats; type: functional, Artery
Rattus norvegicus [18] = assay: Tested for the change in diastolic blood pressure administered at 3200 ug/kg iv in anesthetized rats in presence of hexamethonium (5 mg/kg) (p<0.05); type: functional, Artery
Rattus norvegicus [19] = assay: Tested for the change in diastolic blood pressure administered at 400 ug/kg intravenously in anesthetized rats; type: functional, Artery
Rattus norvegicus [20] = assay: Tested for the change in diastolic blood pressure administered at 50 ug/kg intravenously in anesthetized rats; type: functional, Artery
Rattus norvegicus [21] = assay: Tested for the change in diastolic blood pressure administered at 6400 ug/kg iv in anesthetized rats in presence of propranolol (3 mg/kg); type: functional, Artery
Rattus norvegicus [22] = assay: Tested for the change in diastolic blood pressure administered at 800 ug/kg iv in anesthetized rats in presence of hexamethonium (5 mg/kg) (p<0.05); type: functional, Artery
Rattus norvegicus [23] = assay: Change in respiratory frequency administered at 100 ug/kg iv in anesthetized rats; type: functional
Rattus norvegicus [24] = assay: Change in respiratory frequency administered at 1600 ug/kg iv in anesthetized rats; type: functional
Rattus norvegicus [25] = assay: Change in respiratory frequency administered at 200 ug/kg iv in anesthetized rats; type: functional
Rattus norvegicus [26] = assay: Change in respiratory frequency administered at 400 ug/kg iv in anesthetized rats; type: functional
Rattus norvegicus [27] = assay: Change in respiratory frequency administered at 6400 ug/kg iv in anesthetized rats; type: functional
Rattus norvegicus [28] = assay: Change in heart rate administered at 3200 ug/kg iv in anesthetized rats in presence of phentolamine (2 mg/kg); type: functional
Rattus norvegicus [29] = assay: Change in heart rate administered at 3200 ug/kg iv in anesthetized rats in presence of propranolol (3 mg/kg) (p<0.05); type: functional
Rattus norvegicus [30] = assay: Change in heart rate administered at 6400 ug/kg iv in anesthetized rats in presence of hexamethonium (5 mg/kg) (p<0.05); type: functional
Rattus norvegicus [31] = assay: Change in heart rate administered at 6400 ug/kg iv in anesthetized rats in presence of propranolol (3 mg/kg) (p<0.05); type: functional
Rattus norvegicus [32] = assay: Change in heart rate administered at 800 ug/kg iv in anesthetized rats in presence of hexamethonium (5 mg/kg) (p<0.05); type: functional
Rattus norvegicus [33] = assay: Change in heart rate administered at 800 ug/kg iv in anesthetized rats in presence of phentolamine (2 mg/kg); type: functional
Rattus norvegicus [34] = assay: Maximum rate of rise of the left ventricular isovolumetric pressure administered at 3200 ug/kg iv in anesthetized rats in presence of hexamethonium (5 mg/kg) (p<0.05); type: functional, Heart left ventricle
Rattus norvegicus [35] = assay: Maximum rate of rise of the left ventricular isovolumetric pressure administered at 3200 ug/kg iv in anesthetized rats in presence of phentolamine (2 mg/kg); type: functional, Heart left ventricle
Rattus norvegicus [36] = assay: Maximum rate of rise of the left ventricular isovolumetric pressure administered at 3200 ug/kg iv in anesthetized rats in presence of […] (3 mg/kg) (p<0.05); type: functional, Heart left ventricle
Rattus norvegicus [37] = assay: Maximum rate of rise of the left ventricular isovolumetric pressure administered at 3200 ug/kg iv in anesthetized rats in presence of spinalization under vagotomy (p<0.05); type: functional, Heart left ventricle
Rattus norvegicus [38] = assay: Maximum rate of rise of the left ventricular isovolumetric pressure administered at 6400 ug/kg iv in anesthetized rats in presence of […] (3 mg/kg) (p<0.05); type: functional, Heart left ventricle
Rattus norvegicus [39] = assay: Maximum rate of rise of the left ventricular isovolumetric pressure administered at 800 ug/kg iv in anesthetized rats in presence of […] (3 mg/kg) (p<0.05); type: functional, Heart left ventricle
Rattus norvegicus [40] = assay: Maximum rate of rise of the left ventricular isovolumetric pressure (dP/dt) administered at 100 ug/kg iv in anesthetized rats; type: functional, Heart left ventricle
Rattus norvegicus [41] = assay: Maximum rate of rise of the left ventricular isovolumetric pressure (dP/dt) administered at 1600 ug/kg iv in anesthetized rats; type: functional, Heart left ventricle
Rattus norvegicus [42] = assay: Maximum rate of rise of the left ventricular isovolumetric pressure (dP/dt) administered at 200 ug/kg iv in anesthetized rats; type: functional, Heart left ventricle
Rattus norvegicus [43] = assay: Maximum rate of rise of the left ventricular isovolumetric pressure (dP/dt) administered at 3200 ug/kg iv in anesthetized rats; type: functional, Heart left ventricle
Rattus norvegicus [44] = assay: Maximum rate of rise of the left ventricular isovolumetric pressure (dP/dt) administered at 400 ug/kg iv in anesthetized rats; type: functional, Heart left ventricle

In the case of COc1ccc(/C=C/C(=O)NCCCC/N=C(\N)NCC=C(C)C)cc1OC, the Blood pressure (Rattus norvegicus [1]) is reported as -4 mmHg and -5%, the Blood pressure (Rattus norvegicus [2]) is reported as -34 mmHg and -40% and the Blood pressure (Rattus norvegicus [3]) is reported as -35 mmHg. For the same compound, the Blood pressure (Rattus norvegicus [4]) was -5 mmHg, the Blood pressure (Rattus norvegicus [5]) was -22 mmHg and the Blood pressure (Rattus norvegicus [6]) was -19 mmHg. For the same compound, the Blood pressure (Rattus norvegicus [7]) was -18 mmHg, the Blood pressure (Rattus norvegicus [8]) was -21 mmHg and the Blood pressure (Rattus norvegicus [9]) was -6 mmHg and -9%. The Blood pressure (Rattus norvegicus [10]) was -20 mmHg, the Blood pressure (Rattus norvegicus [11]) was -13 mmHg and the Blood pressure (Rattus norvegicus [12]) was -8 mmHg. The Blood pressure (Rattus norvegicus [13]) was -11 mmHg and -14%, the Blood pressure (Rattus norvegicus [14]) was 0 mmHg and the Blood pressure (Rattus norvegicus [15]) was -30 mmHg. For the same compound, the Blood pressure (Rattus norvegicus [16]) was -15 mmHg and -18%, the Blood pressure (Rattus norvegicus [17]) was -29 mmHg and -47% and the Blood pressure (Rattus norvegicus [18]) was -17 mmHg. The Blood pressure (Rattus norvegicus [19]) was -14 mmHg and -23%, the Blood pressure (Rattus norvegicus [20]) was -5 mmHg and -8% and the Blood pressure (Rattus norvegicus [21]) was -28 mmHg. For the same compound, the Blood pressure (Rattus norvegicus [22]) was -6 mmHg, the Frequency (Rattus norvegicus [23]) was 9 beats min-1 and 8% and the Frequency (Rattus norvegicus [24]) was 23 beats min-1 and 21%. For the same compound, the Frequency (Rattus norvegicus [25]) was 12 beats min-1 and 12%, the Frequency (Rattus norvegicus [26]) was 16 beats min-1 and 16% and the Frequency (Rattus norvegicus [27]) was -87 beats min-1 and -80%. It also gave a Heart rate (Rattus norvegicus [28]) of 24 beats min-1, a Heart rate (Rattus norvegicus [29]) of 9 beats min-1 and a Heart rate (Rattus norvegicus [30]) of 12 beats min-1. The Heart rate (Rattus norvegicus [31]) was 11 beats min-1, the Heart rate (Rattus norvegicus [32]) was 5 beats min-1 and the Heart rate (Rattus norvegicus [33]) was 17 beats min-1. It also gave a dp/dt (Rattus norvegicus [34]) of 1124 mmHg s-1, a dp/dt (Rattus norvegicus [35]) of 2627 mmHg s-1 and a dp/dt (Rattus norvegicus [36]) of 760 mmHg s-1. For the same compound, the dp/dt (Rattus norvegicus [37]) was 680 mmHg s-1, the dp/dt (Rattus norvegicus [38]) was 853 mmHg s-1 and the dp/dt (Rattus norvegicus [39]) was 415 mmHg s-1. It also gave a BP (Rattus norvegicus [40]) of 3%, a dp/dt (Rattus norvegicus [40]) of 141 mmHg s-1 and a BP (Rattus norvegicus [41]) of 57%. The dp/dt (Rattus norvegicus [41]) was 2996 mmHg s-1, the BP (Rattus norvegicus [42]) was 25% and the dp/dt (Rattus norvegicus [42]) was 1284 mmHg s-1. The BP (Rattus norvegicus [43]) was 55%, the dp/dt (Rattus norvegicus [43]) was 2984 mmHg s-1 and the BP (Rattus norvegicus [44]) was 33%. It also gave a dp/dt (Rattus norvegicus [44]) of 1712 mmHg s-1.
